In patent publication US20080026447A1, “Assay for determining factor viia inhibitor concentration in plasma samples” (Bristol-Myers Squibb Company, priority 2006, published 2008):
Read-outs that look alike come from different tables or passages of the source. One block for each compound: values may come before it.

What was measured:
factor VIIa [1] = target: T1, factor VIIa (Homo sapiens, UniProt P08709); experiment: Factor VIIa substrate hydrolysis (amidolytic activity) in factor X deficient plasma; format: biochemical; details: 1 μM inhibitor, 85% factor X deficient plasma, 0.5 nM factor VIIa, D-Ile-Pro-Arg-AFC, FIG. 2
T1 construct: proteolytic cleavage of factor X to factor Xa, factor IX to factor IXa and additional factor VII to factor VIIa
T1 sequence (P08709 61-212 limits assumed): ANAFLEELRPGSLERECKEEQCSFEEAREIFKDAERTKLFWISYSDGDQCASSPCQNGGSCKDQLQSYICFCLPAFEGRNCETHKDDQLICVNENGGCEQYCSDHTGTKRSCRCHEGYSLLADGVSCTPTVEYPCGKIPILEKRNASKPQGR
T1 sequence (P08709 213-466 limits assumed): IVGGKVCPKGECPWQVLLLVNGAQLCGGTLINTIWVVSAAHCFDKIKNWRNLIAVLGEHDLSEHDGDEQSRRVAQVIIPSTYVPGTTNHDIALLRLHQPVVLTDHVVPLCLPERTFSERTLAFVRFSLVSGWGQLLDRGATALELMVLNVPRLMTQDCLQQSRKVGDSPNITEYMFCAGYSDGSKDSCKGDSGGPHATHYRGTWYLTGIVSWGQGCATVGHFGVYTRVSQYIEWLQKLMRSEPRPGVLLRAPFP
T1 sequence (P13726 with tags, fused parts or gaps partner limits assumed): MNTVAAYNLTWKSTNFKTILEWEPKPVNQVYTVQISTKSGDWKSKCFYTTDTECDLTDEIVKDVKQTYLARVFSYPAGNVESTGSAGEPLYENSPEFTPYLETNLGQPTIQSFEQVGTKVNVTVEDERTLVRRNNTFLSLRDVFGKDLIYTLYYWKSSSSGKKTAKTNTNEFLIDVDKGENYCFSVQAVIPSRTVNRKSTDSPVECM
Procedure: The assay was carried out in a fluorescence plate reader at room temperature. factor VIIa substrate hydrolysis (amidolytic activity on the substrate) was monitored for 30 minutes at an excitation wavelength of 400 nm and an emission wavelength of 535 nm. […] Such interference is primarily due to hydrolysis of the relatively nonspecific peptide substrate by downstream proteases such as factor Xa and thrombin.

factor VIIa [2] = target: T1, factor VIIa; experiment: Factor VIIa inhibition in buffer and in factor X deficient human plasma; format: biochemical; details: 2.5 nM factor VIIa, FIG. 5
Procedure: Protein binding of the inhibitor 2-(1-aminoisoquinolin-6-ylamino)-2-(3-ethoxy-4-isopropoxyphenyl)-N-(4-hydroxyphenylsulfonyl)acetamide was determined by measuring factor VIIa inhibition by the test inhibitor in buffer and then in factor X deficient human plasma. […] In FIG. 5, one set of samples contained 2.5 nM factor VIIa, 28 nM soluble tissue factor, 10 mM CaCl2 100 nM D-Ile-Pro-Arg-AFC and varying concentrations of factor VIIa inhibitor 2-(1-aminoisoquinolin-6-ylamino)-2-(3-ethoxy-4-isopropoxyphenyl)-N-(4-hydroxyphenylsulfonyl)acetamide (Compound B). The second sample set was identical to the first set with the addition of 90% factor X deficient plasma. All samples were diluted in 50 mM HEPES pH 7.5, 150 mM NaCl, 0.1% polyethyleneglycol 8000 and 0.1% bovine serum albumin. The assay was carried out in a fluorescence plate reader at room temperature at an excitation wavelength of 400 nm and an emission wavelength of 535 nm. The fraction of the inhibitor bound to plasma protein was calculated according to the following formula: 1-IC50 in buffer/IC50 in plasma. […] Protein binding of 2-(1-aminoisoquinolin-6-ylamino)-2-(3-ethoxy-4-isopropoxyphenyl)-N-(4-hydroxyphenylsulfonyl)acetamide was determined to be 99.2%.

[3] = Binding of factor VIIa inhibitor to plasma proteins (shift in IC50, buffer vs plasma); format: in vitro ADME; details: pH 7.5, probe D-Ile-Pro-Arg-AFC (fluorogenic factor VIIa substrate); factor X deficient human plasma; 1-IC50 in buffer/IC50 in plasma; read-out: Protein binding (converted)
Text: Some embodiments of the present invention provide methods for determining the plasma protein binding affinity of a factor VIIa inhibitor for other plasma proteins. Factor VIIa inhibitors having low plasma protein binding affinity for plasma proteins other than factor VIIa are preferred because more unbound factor VIIa inhibitor is available to bind and inhibit factor VIIa. The term “low protein binding factor VIIa inhibitor” as used herein means, a factor VIIa inhibitor that decreases the activity of factor VIIa in the presence or absence of other plasma proteins. […] The fraction of inhibitor bound to plasma protein is calculated by 1-IC50 in buffer/IC50 in plasma.
Protein binding of the inhibitor 2-(1-aminoisoquinolin-6-ylamino)-2-(3-ethoxy-4-isopropoxyphenyl)-N-(4-hydroxyphenylsulfonyl)acetamide was determined by measuring factor VIIa inhibition by the test inhibitor in buffer and then in factor X deficient human plasma. […] The assay was carried out in a fluorescence plate reader at room temperature at an excitation wavelength of 400 nm and an emission wavelength of 535 nm. The fraction of the inhibitor bound to plasma protein was calculated according to the following formula: 1-IC50 in buffer/IC50 in plasma. […] Protein binding of 2-(1-aminoisoquinolin-6-ylamino)-2-(3-ethoxy-4-isopropoxyphenyl)-N-(4-hydroxyphenylsulfonyl)acetamide was determined to be 99.2%.

[4] = Factor VIIa inhibitor concentration in plasma samples from dosed rabbits (functional assay); format: in vivo; details: sample B6, plasma from dosed rabbit; IC50 of standard curve × plasma dilution factor giving 50% inhibition
Procedure: Plasma was prepared from tested blood samples drawn from rabbits dosed with (R)-N-(5-acetamido-2-(ethylsulfonyl)benzyl)-2-(1-aminoisoquinolin-6-ylamino)-2-(3,4-dimethoxyphenyl)acetamide (Compound C) into buffered citrate. The samples were diluted and combined with tissue factor, factor VIIa, Ca^++, factor Xa inhibitor 2-(3-Aminomethyl-phenyl)-5-trifluoromethyl-2H-pyrazole-3-carboxylic acid (3-fluoro-2′-methanesulfonyl-biphenyl-4-yl)-amide and fluorogenic factor VIIa substrate D-Ile-Pro-Arg-AFC. The inhibitory activity of the tested sample was measured by monitoring the fluorescence of the D-Ile-Pro-Arg-AFC product and comparing the activity to standard curve constructed with plasma from an undosed rabbit spiked with known concentrations of the (R)-N-(5-acetamido-2-(ethylsulfonyl)benzyl)-2-(1-aminoisoquinolin-6-ylamino)-2-(3,4-dimethoxyphenyl)acetamide. […] The assay was carried out in a fluorescent plate reader at room temperature at an excitation wavelength of 400 nm and an emission wavelength of 535 nm. […] IC50 of the standard curve was calculated using floating top and bottom to account for the background signal not originating from factor VIIa activity. […] The concentration of (R)-N-(5-acetamido-2-(ethylsulfonyl)benzyl)-2-(1-aminoisoquinolin-6-ylamino)-2-(3,4-dimethoxyphenyl)acetamide present in sample B6 was calculated to be 338.5 nM. […]

inhibition of amidolytic activity in factor X deficient plasma (factor VIIa [1]): most of it is inhibited
SMILES: COc1cc([C@@H]2Nc3ccc(C(=N)N)cc3[C@H]3c4ccccc4C[C@H]32)c(-c2ccc(C(=O)O)cc2)cc1O [2′-((6R,6aR,11bR)-2-carbamimidoyl-6,6a,7,11b-tetrahydro-5H-indeno[2,1-c]quinolin-6-yl)-5′-hydroxy-4′-methoxybiphenyl-4-carboxylic acid]

IC50 (factor VIIa [2]; 90% factor X deficient plasma, read-out: IC50 in plasma): 3300 nM
IC50 (factor VIIa [2]; buffer without plasma, read-out: IC50 in buffer): 26 nM
fraction unbound [3]: 0.008
SMILES: CCOc1cc(C(Nc2ccc3c(N)nccc3c2)C(=O)NS(=O)(=O)c2ccc(O)cc2)ccc1OC(C)C (centres unmarked) [Compound B, 2-(1-aminoisoquinolin-6-ylamino)-2-(3-ethoxy-4-isopropoxyphenyl)-N-(4-hydroxyphenylsulfonyl)acetamide]

concentration present in plasma sample [4]: 338.5 nM
SMILES: CCS(=O)(=O)c1ccc(NC(C)=O)cc1CNC(=O)[C@H](Nc1ccc2c(N)nccc2c1)c1ccc(OC)c(OC)c1 [Compound C, (R)-N-(5-acetamido-2-(ethylsulfonyl)benzyl)-2-(1-aminoisoquinolin-6-ylamino)-2-(3,4-dimethoxyphenyl)acetamide]
